Measurements taken from ChEMBL document CHEMBL4311992, “Discovery of 3-(((9H-purin-6-yl)amino)methyl)-4,6-dimethylpyridin-2(1H)-one derivatives as novel tubulin polymerization inhibitors for treatment of cancer” (Eur J Med Chem, 2019).

Legend:
HCT-116 = test: Induction of apoptosis in human HCT116 cells assessed as increase in cleaved caspase9 expression measured after 48 hrs by Western blot analysis; format: functional, cell-based
[1] = biological target: Calcium/calmodulin-dependent protein kinase type 1B (Homo sapiens) (UniProt Q6P2M8); test: Inhibition of recombinant full-length human CaMK1beta assessed as residual activity at 10 uM using calmodulin as substrate measured after 40 mins in presence of [gamma33P]ATP by scintillation counting method
[2] = biological target: Cyclin-Y/Cyclin-dependent kinase 16 (Homo sapiens) (UniProt Q00536+Q8ND76); test: Inhibition of recombinant full length human CDK16/cyclinY assessed as residual activity at 10 uM using PKSPKARKKL as substrate measured after 120 mins in presence of [gamma33P]ATP by scintillation counting method; format: protein-complex assay
[3] = biological target: CDK12/Cyclin K (Homo sapiens) (UniProt O75909+Q9NYV4); test: Inhibition of recombinant full length human CDK12/cyclinK assessed as residual activity at 10 uM using RSRSRSRSRSRSRSR as substrate measured after 120 mins in presence of [gamma33P]ATP by scintillation counting method; format: protein-complex assay
[4] = system: Serine/threonine-protein kinase N1 (Homo sapiens), Q16512 [V901I]; test: Inhibition of human PRK1 V901I mutant (498 to end residues) using KKLNRTLSFAEPG as substrate measured after 40 mins in presence of [gamma33P]ATP by scintillation counting method; design: scale not given: the % may be the effect or the level left
[5] = Toxicity in nude BALB/c mouse assessed as change in glucose level at 40 to 80 mg/kg, po once daily for 4 weeks measured post-last dose; format: organism-based; conditions: in vivo, 672 h
[6] = biological target: Protein kinase C alpha type (Homo sapiens) (UniProt P17252); test: Inhibition of recombinant full-length human PKCalpha assessed as residual activity at 10 uM using histone H1 as substrate measured after 40 mins in presence of [gamma33P]ATP by scintillation counting method
[7] = system: Homeodomain-interacting protein kinase 2 (Homo sapiens), Q9H2X6 [UNDEFINED MUTATION]; test: Inhibition of recombinant human HIPK2 I471N mutant (165 to 564 residues) assessed as residual activity at 10 uM using myelin basic protein as substrate measured after 40 mins in presence of [gamma33P]ATP by scintillation counting method
[8] = biological target: Dual specificity tyrosine-phosphorylation-regulated kinase 3 (Homo sapiens) (UniProt O43781); test: Inhibition of recombinant full-length human DYRK3 assessed as residual activity at 10 uM using RRRFRPASPLRGPPK as substrate measured after 40 mins in presence of [gamma33P]ATP by scintillation counting method
[9] = biological target: PAS domain-containing serine/threonine-protein kinase (Homo sapiens) (UniProt Q96RG2); test: Inhibition of recombinant human PASK (995 to end residues) assessed as residual activity at 10 uM using KKLNRTLSFAEPG as substrate measured after 40 mins in presence of [gamma33P]ATP by scintillation counting method
[10] = biological target: cGMP-dependent protein kinase 2 (Homo sapiens) (UniProt Q13237); test: Inhibition of recombinant full-length human PRKG2 assessed as residual activity at 10 uM using KKLRRTLSFAEPG as substrate measured after 40 mins in presence of [gamma33P]ATP by scintillation counting method
[11] = biological target: Insulin-like growth factor 1 receptor (Homo sapiens) (UniProt P08069); test: Inhibition of recombinant human IGF1R (959 to end residues) assessed as residual activity at 10 uM using KKKSPGEYVNIEFG as substrate measured after 40 mins in presence of [gamma33P]ATP by scintillation counting method
Sequence of Insulin-like growth factor 1 receptor (Homo sapiens) (P08069 31-736 limits assumed): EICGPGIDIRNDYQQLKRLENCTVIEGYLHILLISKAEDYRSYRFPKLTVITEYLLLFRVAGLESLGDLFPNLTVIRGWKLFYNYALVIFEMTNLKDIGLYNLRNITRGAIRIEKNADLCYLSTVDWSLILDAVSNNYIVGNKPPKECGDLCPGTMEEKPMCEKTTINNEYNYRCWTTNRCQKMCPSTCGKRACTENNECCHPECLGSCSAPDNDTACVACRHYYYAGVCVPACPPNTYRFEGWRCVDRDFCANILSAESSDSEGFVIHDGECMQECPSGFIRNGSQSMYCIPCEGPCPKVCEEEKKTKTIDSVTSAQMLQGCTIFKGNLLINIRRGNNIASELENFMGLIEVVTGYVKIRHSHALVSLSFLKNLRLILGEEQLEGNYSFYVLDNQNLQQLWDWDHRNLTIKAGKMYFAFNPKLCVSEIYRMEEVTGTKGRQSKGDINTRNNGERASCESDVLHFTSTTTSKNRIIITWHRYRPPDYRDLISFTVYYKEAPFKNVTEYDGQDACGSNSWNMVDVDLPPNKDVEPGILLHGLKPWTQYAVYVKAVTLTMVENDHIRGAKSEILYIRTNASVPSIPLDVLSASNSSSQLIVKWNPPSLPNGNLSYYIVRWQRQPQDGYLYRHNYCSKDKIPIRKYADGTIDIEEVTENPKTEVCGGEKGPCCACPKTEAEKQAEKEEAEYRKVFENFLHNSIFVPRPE
Sequence of Insulin-like growth factor 1 receptor (Homo sapiens) (P08069 741-1367 limits assumed): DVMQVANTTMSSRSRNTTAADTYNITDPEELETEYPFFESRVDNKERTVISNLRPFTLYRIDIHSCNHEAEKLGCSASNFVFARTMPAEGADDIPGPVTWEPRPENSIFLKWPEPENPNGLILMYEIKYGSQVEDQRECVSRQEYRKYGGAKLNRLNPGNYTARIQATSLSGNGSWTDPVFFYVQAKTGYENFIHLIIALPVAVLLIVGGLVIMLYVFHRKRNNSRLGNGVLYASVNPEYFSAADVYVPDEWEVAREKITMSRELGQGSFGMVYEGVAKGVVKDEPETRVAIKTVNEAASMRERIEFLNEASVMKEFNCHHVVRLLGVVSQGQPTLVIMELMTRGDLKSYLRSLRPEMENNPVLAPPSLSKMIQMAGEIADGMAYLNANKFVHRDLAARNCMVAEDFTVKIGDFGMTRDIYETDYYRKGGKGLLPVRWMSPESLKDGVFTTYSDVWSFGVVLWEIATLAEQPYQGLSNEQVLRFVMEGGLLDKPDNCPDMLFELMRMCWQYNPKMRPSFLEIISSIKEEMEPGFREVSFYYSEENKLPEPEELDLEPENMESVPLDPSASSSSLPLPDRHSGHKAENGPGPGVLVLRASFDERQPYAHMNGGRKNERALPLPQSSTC

Sequence of CDK12/Cyclin K (Homo sapiens) (O75909 whole entry, looked up): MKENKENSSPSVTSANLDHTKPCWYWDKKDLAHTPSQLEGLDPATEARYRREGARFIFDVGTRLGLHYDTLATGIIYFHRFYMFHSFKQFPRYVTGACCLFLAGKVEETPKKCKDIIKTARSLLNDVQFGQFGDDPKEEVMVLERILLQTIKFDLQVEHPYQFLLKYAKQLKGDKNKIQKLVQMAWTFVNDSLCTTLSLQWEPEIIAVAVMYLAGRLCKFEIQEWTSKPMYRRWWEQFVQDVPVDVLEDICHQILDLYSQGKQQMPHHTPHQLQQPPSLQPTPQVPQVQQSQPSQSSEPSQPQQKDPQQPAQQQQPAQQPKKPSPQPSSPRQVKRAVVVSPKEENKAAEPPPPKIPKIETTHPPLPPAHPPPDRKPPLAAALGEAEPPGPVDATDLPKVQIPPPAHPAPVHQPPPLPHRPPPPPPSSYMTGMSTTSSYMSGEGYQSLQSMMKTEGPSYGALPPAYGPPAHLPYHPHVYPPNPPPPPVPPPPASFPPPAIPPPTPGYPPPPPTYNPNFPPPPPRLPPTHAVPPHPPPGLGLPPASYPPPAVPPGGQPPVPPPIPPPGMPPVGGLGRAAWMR
Sequence of CDK12/Cyclin K (Homo sapiens) (Q9NYV4 whole entry, looked up): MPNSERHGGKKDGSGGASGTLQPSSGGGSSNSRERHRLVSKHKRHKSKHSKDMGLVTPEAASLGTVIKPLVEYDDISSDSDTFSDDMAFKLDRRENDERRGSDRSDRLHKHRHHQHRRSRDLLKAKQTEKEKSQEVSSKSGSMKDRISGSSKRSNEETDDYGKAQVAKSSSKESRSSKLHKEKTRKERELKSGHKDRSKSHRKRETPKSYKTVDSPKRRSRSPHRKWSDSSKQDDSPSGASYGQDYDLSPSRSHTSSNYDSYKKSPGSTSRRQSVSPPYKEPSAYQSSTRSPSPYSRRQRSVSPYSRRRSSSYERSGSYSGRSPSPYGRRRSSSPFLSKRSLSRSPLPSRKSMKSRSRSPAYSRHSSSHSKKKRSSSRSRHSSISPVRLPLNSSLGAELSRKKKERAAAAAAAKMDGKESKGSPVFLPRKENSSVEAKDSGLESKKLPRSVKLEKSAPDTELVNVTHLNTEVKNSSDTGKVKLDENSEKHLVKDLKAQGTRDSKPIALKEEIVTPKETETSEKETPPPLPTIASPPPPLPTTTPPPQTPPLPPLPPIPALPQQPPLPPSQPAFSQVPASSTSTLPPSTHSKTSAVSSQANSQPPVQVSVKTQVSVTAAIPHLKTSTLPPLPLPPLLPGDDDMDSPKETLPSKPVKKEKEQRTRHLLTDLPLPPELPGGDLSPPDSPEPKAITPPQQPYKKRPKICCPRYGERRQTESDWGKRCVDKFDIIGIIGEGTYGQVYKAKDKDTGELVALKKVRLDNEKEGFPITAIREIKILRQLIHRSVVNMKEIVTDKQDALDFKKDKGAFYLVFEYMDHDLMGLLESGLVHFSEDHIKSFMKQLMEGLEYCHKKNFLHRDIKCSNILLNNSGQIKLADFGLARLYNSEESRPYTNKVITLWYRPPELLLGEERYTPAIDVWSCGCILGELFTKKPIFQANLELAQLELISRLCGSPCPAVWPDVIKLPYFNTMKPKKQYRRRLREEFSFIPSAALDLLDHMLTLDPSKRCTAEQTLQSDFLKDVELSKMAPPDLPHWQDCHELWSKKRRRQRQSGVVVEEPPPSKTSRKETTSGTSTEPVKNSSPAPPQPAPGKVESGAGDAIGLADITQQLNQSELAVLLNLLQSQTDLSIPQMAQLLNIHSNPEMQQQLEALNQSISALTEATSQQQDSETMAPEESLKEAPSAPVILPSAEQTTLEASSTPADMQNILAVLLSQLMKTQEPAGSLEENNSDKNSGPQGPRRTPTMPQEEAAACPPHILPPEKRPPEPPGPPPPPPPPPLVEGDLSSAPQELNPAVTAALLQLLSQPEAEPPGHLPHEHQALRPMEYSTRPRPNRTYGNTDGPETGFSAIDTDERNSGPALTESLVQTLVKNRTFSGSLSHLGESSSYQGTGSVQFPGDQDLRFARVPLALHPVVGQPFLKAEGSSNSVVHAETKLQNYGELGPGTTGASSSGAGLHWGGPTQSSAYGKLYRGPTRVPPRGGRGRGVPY
Sequence of cGMP-dependent protein kinase 2 (Homo sapiens) (Q13237 whole entry): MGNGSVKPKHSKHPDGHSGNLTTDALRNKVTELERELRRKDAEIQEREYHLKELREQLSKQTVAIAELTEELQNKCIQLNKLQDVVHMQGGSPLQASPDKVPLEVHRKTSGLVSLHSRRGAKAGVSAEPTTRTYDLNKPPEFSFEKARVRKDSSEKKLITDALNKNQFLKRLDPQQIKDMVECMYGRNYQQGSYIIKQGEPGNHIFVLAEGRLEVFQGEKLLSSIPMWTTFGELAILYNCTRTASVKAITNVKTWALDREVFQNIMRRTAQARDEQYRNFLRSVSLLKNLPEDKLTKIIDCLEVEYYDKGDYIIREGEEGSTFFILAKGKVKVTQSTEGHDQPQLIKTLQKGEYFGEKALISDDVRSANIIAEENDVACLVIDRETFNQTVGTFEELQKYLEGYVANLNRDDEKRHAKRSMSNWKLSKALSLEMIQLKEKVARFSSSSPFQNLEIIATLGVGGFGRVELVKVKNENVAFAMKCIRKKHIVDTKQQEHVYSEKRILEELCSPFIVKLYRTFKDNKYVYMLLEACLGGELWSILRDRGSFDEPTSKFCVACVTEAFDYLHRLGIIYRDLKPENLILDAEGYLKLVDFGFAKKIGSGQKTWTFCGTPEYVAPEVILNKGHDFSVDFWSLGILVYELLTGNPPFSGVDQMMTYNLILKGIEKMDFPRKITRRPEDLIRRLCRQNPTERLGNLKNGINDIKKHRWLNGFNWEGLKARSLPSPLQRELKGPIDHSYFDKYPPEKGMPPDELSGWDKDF
Sequence of Dual specificity tyrosine-phosphorylation-regulated kinase 3 (Homo sapiens) (O43781 whole entry, the tested form may be a part): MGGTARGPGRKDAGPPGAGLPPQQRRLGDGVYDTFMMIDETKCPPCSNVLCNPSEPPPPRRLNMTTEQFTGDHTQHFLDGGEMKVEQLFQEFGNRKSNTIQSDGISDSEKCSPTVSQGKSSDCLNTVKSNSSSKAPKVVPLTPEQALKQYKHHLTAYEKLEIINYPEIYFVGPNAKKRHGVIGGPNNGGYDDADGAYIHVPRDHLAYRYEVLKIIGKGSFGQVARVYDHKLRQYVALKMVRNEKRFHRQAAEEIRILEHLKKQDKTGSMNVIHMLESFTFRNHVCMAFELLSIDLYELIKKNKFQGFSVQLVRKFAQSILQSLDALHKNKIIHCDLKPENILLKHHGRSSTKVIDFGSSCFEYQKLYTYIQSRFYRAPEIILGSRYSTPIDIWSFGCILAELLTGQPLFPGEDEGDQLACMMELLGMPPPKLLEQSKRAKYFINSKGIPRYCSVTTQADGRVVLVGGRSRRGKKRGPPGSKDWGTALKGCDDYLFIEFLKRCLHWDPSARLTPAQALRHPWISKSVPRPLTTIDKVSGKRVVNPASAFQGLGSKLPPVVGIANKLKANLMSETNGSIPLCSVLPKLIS

**Q.** For Cc1cc(C)c(CNc2nc(Cl)nc3c2ncn3C2CCCC2)c(=O)[nH]1, which Activity (HCT-116) is on record?
**A.** Dose-dependent effect

**Q.** What about the Activity [1] of the same compound?
**A.** 107%

**Q.** What about the Activity [2] of the same compound?
**A.** 123%

**Q.** What about the Activity [3] of the same compound?
**A.** 104%

**Q.** And the Activity [4]?
**A.** 98.5%

**Q.** And the Activity [5]?
**A.** Non-Toxic

**Q.** And the Activity [6]?
**A.** 88.5%

**Q.** And the Activity [7]?
**A.** 104%

**Q.** And the Activity [8]?
**A.** 122%

**Q.** And the Activity [9]?
**A.** 100%

**Q.** What about the Activity [10] of the same compound?
**A.** 98%

**Q.** What about the Activity [11] of the same compound?
**A.** 81%
